Measured values from patent US8329919B2, “Salt hydrates” (Novartis AG, priority 2002, dated 2012).
“And” between values parts separate entries of the source, which are not always exact repeats. Identical values can stand only once.

Test: Thermogravimetry: weight loss, i.e. water loss, as a function of temperature (thermobalance TGS-2)
Format: physicochemical
Conditions: heating rate 10 K·min^−1, water-free N2 atmosphere
Procedure: Using thermogravimetry, in a water-free N2 atmosphere, the weight loss, i.e. the water loss for the tetrahydrate of the calcium salt of valsartan A1,Ca as a function of temperature, was measured at a heating rate of 10 K·min^−1. […]
Using thermogravimetry, in a water-free N2 atmosphere, the weight loss, i.e. the water loss for the trihydrate of the calcium salt of valsartan in the polymorphic form B1,Ca as a function of temperature, was measured at a heating rate of 10 K·min^−1.
(§1) Using thermogravimetry, in a water-free N2 atmosphere, the weight loss, i.e. the water loss for the trihydrate B2,Ca as a function of temperature, was measured at a heating rate of 10 K·min^−1. The results for the polymorph B2,Ca of the trihydrate of the calcium salt of valsartan are illustrated in table 4.
as §1, with “B3,Ca” for “B2,Ca”, “polymorphic form B3,Ca” for “polymorph B2,Ca”, “5.” for “4.”
Using thermogravimetry, in a water-free N2 atmosphere, the weight loss, i.e. the water loss for the di-(calcium salt of valsartan) pentahydrate D1,Ca as a function of temperature, was measured at a heating rate of 10 K·min^−1.
The instrument used for the calorimetric data is throughout a DSC Pyris 1 (Differential Scanning calorimeter) obtained from Perkin-Elmer Corp., Norwalk, Conn. USA. The measurements are performed with samples enclosed in a sealed gold specimen container with an internal free volume of ca. 22 microliters, with a sample weight of 2 to 4 mg and with a heating rate of Tr=10K·min^−1. […] The instrument used was a TGS-2 (Perkin-Elmer Corp., Norwalk, Conn. USA) and the measurement was performed in a water free atmosphere. The heating rate selected was 10 K·min^−1. The weight loss is illustrated in table 7.
The heating rate selected was 10K·min^−1.
Using thermogravimetry, in a water-free N2 atmosphere, the weight loss, i.e. the water loss for the tetrahydrate as a function of temperature, was measured at a heating rate of 10 K·min^−1. The results for the calcium salt of valsartan tetrahydrate A0,Ca are listed in the following: […]
Using thermogravimetry, in a water-free N2 atmosphere, the weight loss, i.e. the water loss for the tetrahydrate of the calcium salt of valsartan as a function of temperature, was measured at a heating rate of 10 K·min^−1.

| Compound | weight loss or water loss in % (temperature 25 °C) | weight loss or water loss in % (temperature 50 °C) | weight loss or water loss in % (temperature 75 °C) | weight loss or water loss in % (temperature 100 °C) | weight loss or water loss in % (temperature 125 °C) | weight loss or water loss in % (temperature 150 °C) | weight loss or water loss in % (temperature 175 °C) | weight loss or water loss in % (temperature 200 °C) | weight loss or water loss in % (temperature 225 °C) | weight loss or water loss in % (temperature 250 °C) | weight loss or water loss in % (temperature 275 °C) | also measured |
| --- | --- | --- | --- | --- | --- | --- | --- | --- | --- | --- | --- | --- |
| CCCCC(=O)N(Cc1ccc(-c2ccccc2-c2nnn[nH]2)cc1)[C@H](C(=O)O)C(C)C [A0,Mg, (S)—N-(1-carboxy-2-methyl-prop-1-yl)-N-pentanoyl-N-[2′-(1H-tetrazol-5-yl)-biphenyl-4-ylmethyl]-amine] | 0.0% | 1.2% | 4.2% | 11.0% | 16.7% | 17.7% | 18.3% | 18.5% | 18.7% | 18.9% | 19.3% |  |
| CCCCC(=O)N(Cc1ccc(-c2ccccc2-c2nnn[nH]2)cc1)[C@H](C(=O)O)C(C)C [A1,Mg, (S)—N-(1-carboxy-2-methyl-prop-1-yl)-N-pentanoyl-N-[2′-(1H-tetrazol-5-yl)-biphenyl-4-ylmethyl]-amine] | 0.1 ± 0.1% and 0% | 1.0 ± 0.3% and 0.9% | 6.8 ± 0.5% and 6.8% | 14.1 ± 0.5% and 14.3% | 15.6 ± 0.5% and 15.7% | 16.4 ± 0.5% and 16.5% | 16.9 ± 0.5% and 17.0% | 17.1 ± 0.5% and 17.2% | 17.3 ± 0.5% and 17.4% | 17.6 ± 0.5% and 17.8% | 18.3 ± 0.5% and 18.3% |  |
| CCCCC(=O)N(Cc1ccc(-c2ccccc2-c2nnn[nH]2)cc1)[C@H](C(=O)O)C(C)C [A2,Ca, (S)—N-(1-carboxy-2-methyl-prop-1-yl)-N-pentanoyl-N-[2′-(1H-tetrazol-5-yl)-biphenyl-4-ylmethyl]-amine] | 0 ± 0.3% and 0% | 0.1 ± 0.3% and 0% | 0.5 ± 0.5% and 0% | 4.9 ± 0.5% and 4.7% | 11.2 ± 0.5% and 11.1% | 12.2 ± 0.5% and 11.9% | 12.6 ± 0.5% and 12.3% | 12.7 ± 0.5% and 12.5% | 12.8 ± 0.5% and 12.6% | 12.8 ± 0.5% and 12.7% | 13.0 ± 0.5% and 13.3% |  |
| CCCCC(=O)N(Cc1ccc(-c2ccccc2-c2nnn[nH]2)cc1)[C@H](C(=O)O)C(C)C [B1,Mg, (S)—N-(1-carboxy-2-methyl-prop-1-yl)-N-pentanoyl-N-[2′-(1H-tetrazol-5-yl)-biphenyl-4-ylmethyl]-amine] | 0 ± 0.1% | 2.1 ± 0.3% | 6.5 ± 0.5% | 9.5 ± 0.5% | 11.1 ± 0.5% | 12.0 ± 0.5% | 12.5 ± 0.5% | 12.8 ± 0.5% | 13.0 ± 0.5% | 13.6 ± 0.5% | 14.3 ± 0.5% |  |
| CCCCC(=O)N(Cc1ccc(-c2ccccc2-c2nn[n-]n2)cc1)[C@H](C(=O)[O-])C(C)C.CCCCC(=O)N(Cc1ccc(-c2ccccc2-c2nn[n-]n2)cc1)[C@H](C(=O)[O-])C(C)C.O.O.O.O.O.[Ca+2].[Ca+2] [D1,Ca, di-{calcium salt of (S)—N-(1-carboxy-2-methyl-prop-1-yl)-N-pentanoyl-N-[2′-(1H-tetrazol-5-yl)-biphenyl-4-ylmethyl]-amine}pentahydrate] | 0.1 ± 0.1% and 0.1% | 1.3 ± 0.3% and 1.7% | 2.8 ± 0.5% and 3.3% | 5.1 ± 0.5% and 5.1% | 7.4 ± 0.5% and 7.1% | 8.0 ± 0.5% and 7.7% | 8.1 ± 0.5% and 7.9% | 8.2 ± 0.5% and 8.0% | 8.2 ± 0.5% and 8.1% | 8.3 ± 0.5% and 8.3% | 8.6 ± 0.5% and 8.6% |  |
| CCCCC(=O)N(Cc1ccc(-c2ccccc2-c2nnn[nH]2)cc1)[C@H](C(=O)O)C(C)C [F1,Ca, (S)—N-(1-carboxy-2-methyl-prop-1-yl)-N-pentanoyl-N-[2′-(1H-tetrazol-5-yl)-biphenyl-4-ylmethyl]-amine] | 0.6% | 3.0% | 5.6% | 7.1% | 7.9% | 8.3% | 8.6% | 8.6% | 8.8% |  |  |  |
| (S)—N-(1-carboxy-2-methyl-prop-1-yl)-N-pentanoyl-N-[2′-(1H-tetrazol-5-yl)-biphenyl-4-ylmethyl]-amine calcium salt tetrahydrate [A0,Ca] | 0% | 0% | 0.5% | 3.5% | 10.2% | 12.4% | 12.8% | 12.9% | 13.0% | 13.3% | 13.2% |  |
| (S)—N-(1-carboxy-2-methyl-prop-1-yl)-N-pentanoyl-N-[2′-(1H-tetrazol-5-yl)-biphenyl-4-ylmethyl]-amine calcium salt tetrahydrate [A1,Ca] | 1.1 ± 0.5% and 1.1% | 3.3 ± 0.5% and 3.3% | 5.1 ± 0.5% and 5.1% | 9.6 ± 1.0% and 9.6% | 12.2 ± 0.5% and 12.1% | 12.9 ± 0.5% and 12.9% | 13.2 ± 0.5% and 13.2% | 13.3 ± 0.5% and 13.3% | 13.4 ± 0.5% and 13.4% | 13.3 ± 0.5% and 13.3% | 13.7 ± 0.5% and 13.7% |  |
| (S)—N-(1-carboxy-2-methyl-prop-1-yl)-N-pentanoyl-N-[2′-(1H-tetrazol-5-yl)-biphenyl-4-ylmethyl]-amine calcium salt trihydrate [B1,Ca] |  |  |  |  |  |  |  | 9.7% |  |  |  | weight loss or water loss in % (temperature 25 °C, calcium salt trihydrate): 0.4 ± 0.3% and 0.5%; weight loss or water loss in % (temperature 50 °C, calcium salt trihydrate): 2.0 ± 0.5% and 2.0%; weight loss or water loss in % (temperature 75 °C, calcium salt trihydrate): 4.0 ± 0.5% and 3.9%; weight loss or water loss in % (temperature 100 °C, calcium salt trihydrate): 6.3 ± 0.5% and 5.7%; weight loss or water loss in % (temperature 125 °C, calcium salt trihydrate): 8.5 ± 0.5% and 8.1%; weight loss or water loss in % (temperature 150 °C, calcium salt trihydrate): 9.5 ± 0.5% and 9.2%; weight loss or water loss in % (temperature 175 °C, calcium salt trihydrate): 9.7 ± 0.5% and 9.5%; weight loss or water loss in % (temperature 200 °C, calcium salt trihydrate): 9.9 ± 0.5%; weight loss or water loss in % (temperature 225 °C, calcium salt trihydrate): 9.9 ± 0.5% and 9.7%; weight loss or water loss in % (temperature 250 °C, calcium salt trihydrate): 10.0 ± 0.5% and 9.9%; weight loss or water loss in % (temperature 275 °C, calcium salt trihydrate): 10.3 ± 0.5% and 10.2% |
